# Literature values in US8999393B1, “Sustained release formulations of lorazepam” (Edgemont Pharmaceuticals LLC, priority 2013, dated 2015).
# Tests used:
# [1] = according to the package insert
smiles,measurement,setting,value
"O=C1Nc2ccc(Cl)cc2C(c2ccccc2Cl)=NC1O (racemic) [lorazepam, ±7-chloro-5-(2-chlorophenyl)-1,3-dihydro-3-hydroxy-2H-1,4-benzodiazepin-2-one]",half-life in human plasma,[1],about 12 hours
same,solubility in water,,almost insoluble
